Assay results as given in US20210170026A1, “ANTICANCER AGENT, RADIOSENSITIZER, AND FOOD COMPOSITION” (KRACIE PHARMA, LTD., priority 2016, published 2021).

Key:
[1] = tested on: human pancreatic cancer cells, MiaPaCa-2 cells; experiment: Test Example 1: antitumor effects of arctigenin treatment and radiation therapy in mice transplanted with MiaPaCa-2 cells; format: in vivo, BALB/cAJc1-nu/nu mice
Description: The antitumor effects of arctigenin treatment and radiation therapy were evaluated. To BALB/cAJc1-nu/nu mice (CLEA Japan, Inc.), 1×10^6 human pancreatic cancer cells, MiaPaCa-2 cells were subcutaneously transplanted. On day 14 after the transplantation, the mice to which the cells were transplanted were divided into four groups of (a) untreated group, (b) arctigenin treatment group, (c) radiation therapy group and (d) arctigenin treatment-radiation therapy-combination group. The arctigenin treatment group and the combination group were treated with arctigenin for two weeks. The arctigenin treatment was conducted by giving feed containing 0.5% (w/w) of the burdock fruit extract of Example 1 to the mice. When the dose of arctigenin was calculated assuming that the daily intake of the feed of the mice was 3 to 5 g, the dose was 1.5 to 2.5 mg/individual/day. After two weeks of the arctigenin treatment, radiation was applied to the tumors of the radiation therapy group and the combination group using an x-ray irradiator (Faxitron X-ray (model: CP160)) under the setting conditions of 160 kV and 6.3 mA at a dose of 20 Gy/fraction through a copper plate filter. Then, the arctigenin administration group and the combination group were treated with arctigenin for two weeks. After the arctigenin treatment, the tumor sizes and the tumor weights of the groups were measured. In addition, the tumors were collected and pathologically analyzed.

[2] = cited from earlier work
[3] = tested on: human pancreatic cancer cells, MiaPaCa-2 cells; experiment: Test Example 2: order of arctigenin treatment and radiation therapy in mice transplanted with MiaPaCa-2 cells; format: in vivo, BALB/cAJc1-nu/nu mice
Description: In order to evaluate whether the order of the burdock fruit extract treatment and the radiation therapy would affect the antitumor effects, arctigenin treatment was conducted for two weeks either before or after conducting radiation therapy. To BALB/cAJc1-nu/nu mice (CLEA Japan, Inc.), 1×10^6 human pancreatic cancer cells, MiaPaCa-2 cells were subcutaneously transplanted. On day 14 after the transplantation, the mice to which the cells were transplanted were divided into (a) untreated group, (b) arctigenin treatment group, (c) radiation therapy group and (d) arctigenin treatment-radiation therapy-combination group. The (b) arctigenin treatment group was further divided into a group in which two-week arctigenin treatment was started 14 days after the transplantation and a group in which two-week arctigenin treatment was started four weeks after the transplantation. […] When the dose of arctigenin was calculated assuming that the daily intake of the feed of the mice was 3 to 5 g, the dose was 1.5 to 2.5 mg/individual/day. […] After the two-week arctigenin treatment after the radiation therapy, the tumor sizes and the tumor weights of the groups were measured. In addition, the tumors were collected and pathologically analyzed.

[4] = combination of arctigenin treatment and radiation therapy (20 Gy/fraction), two weeks after the radiation therapy, vs untreated group

COc1cc(C[C@H]2C(=O)OC[C@@H]2Cc2ccc(OC)c(OC)c2)ccc1O [arctigenin]
intratumoral hypoxic region (photon counts/tumor volume) using IVIS ([1]; after the arctigenin treatment (before radiation therapy), vs untreated group, FIG. 3, FIG. 4): significantly smaller | average tumor size ([1]; after two weeks of first arctigenin treatment (before radiation therapy), vs untreated group, feed containing 0.5% (w/w) burdock fruit extract of Example 1, arctigenin 1.5 to 2.5 mg/individual/day, FIG. 2): significantly smaller | tumor size ([1]; arctigenin treatment alone, after end of treatment (two weeks after the radiation therapy), vs untreated group): a tendency towards a smaller tumor size | tumor sizes [1, 4]: significantly smaller | tumor weights [1, 4]: significantly smaller | tumors (size) ([1]; combination of arctigenin treatment and radiation therapy, vs radiation therapy alone): significantly small | solubility in water [2]: insoluble | hypoxic state in the tumor ([3]; arctigenin treatment before the radiation therapy, IVIS, FIG. 12): improved | average tumor size ([3]; two-week arctigenin treatment before radiation therapy (AG-Con, RT(+)) vs arctigenin treatment after radiation therapy (Con-AG, RT(+)), FIG. 11): shrank significantly
